Test results reported in patent publication US20050282743A1, “Molecular interactions in cells” (Arbor Vita Corporation, priority 2001, published 2005).
Values joined by “and” are separate entries in the source; they are usually repeats but may differ in a detail not shown here. Identical values can stand only once. Like-named read-outs stand apart in the source and are kept apart here. Blank lines part the entries; values can stand above or below the compound they belong to. Peptide text beside a SMILES is read from it. * marks the point of attachment. Biotin = O=C1N[C@H]2[C@H](CS[C@H]2CCCCC(=O)*)N1

Columns and labels:
Format in all cases: binding
TIP-1 (GST-TIP-1 fusion) = biological target: T1, TIP-1 (GST-TIP-1 fusion) (Homo sapiens, UniProt O14907, I73S); experiment: G assay peptide titration, dissociation constants (Example 3, TABLE 4); conditions: for OD (maximum absorbance) / Kd: biotinylated C-terminal 20-mer, 450 nm, 30 min
T1 construct: made in house; host or cells: E. coli DH5alpha
T1 sequence (O14907 3-123 I73S): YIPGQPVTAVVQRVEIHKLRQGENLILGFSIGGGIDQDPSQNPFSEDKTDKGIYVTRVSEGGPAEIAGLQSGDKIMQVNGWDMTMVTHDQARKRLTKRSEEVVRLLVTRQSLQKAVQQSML
Experimental: (§1) Binding between these molecules was assessed using a modified ELISA. Briefly, a GST-TIP-1 fusion was produced that contained the entire PDZ domain of human TIP-1 (Insert as in EXAMPLE 2). In addition, biotinylated peptides corresponding to the C-terminal 20 amino acids of Tax and CD95 were synthesized and purified by HPLC. Binding between these entities was detected through a colorimetric assay using avidin-HRP to bind the biotin and a peroxidase substrate (G-assay, as described supra). By titrating the amount of peptide and protein added to these reactions, dissociation constants (Kd) were determined as an indication of relative affinity of the peptide and fusion protein association.
(§2) (at last wash leave PBS in wells until immediately adding next step) • 6) Add proteins at 50 ul per well on ice (1 to 2 hrs at 4° C.) • 7) Prepare Peptides in 2% BSA (2 ml/row or /columns) • 8) 3× wash with cold PBS • 9) Add peptides at 50 ul per well on ice (time on/time off)
(§3) Using the protocol for the ‘G’ assay described above, dissociation constants were determined by titrating the amount of peptide against a set concentration of PDZ-containing protein. Kd values were determined by identifying the peptide concentration that gave half-maximal binding to the PDZ protein. Different concentrations of PDZ-containing protein were plated in order to achieve maximal peptide binding values that were less than the absorbance maximum of the ELISA plate reader.
(§4) Proteins on the left are GST fusions to the PDZ domain(s) of protein indicated. Numbers in parenthesis indicate the number of PDZ domains present in the fusion construct, from the amino-terminus of the first number listed to the carboxyl terminus of the second. PDZ Ligands are listed across the top of the table, representing biotinylated peptides corresponding to the carboxy-terminal 20 amino acids of each protein. The first three columns following the PDZ indicate the concentration of fusion protein plated for the G assay, followed by the wavelength and time of reading from addition of TMB substrate. 450 nm indicates a reaction halted by addition of sulfuric acid and absorbance read at 450 nm. Values beneath each ligand indicate first the maximum absorbance followed by the observed Kd in uM. Numbers in the squares are the average of duplicate or quadruplicate reactions. Blank squares indicate that the Kd for the interaction was not tested under those conditions on the same sample plate. No binding to GST alone is observed.

DLG1(1-2) = biological target: T2, DLG1(1-2) (Homo sapiens, UniProt Q12959); experiment: as above; conditions: biotinylated C-terminal 20-mer, 450 nm, 30 min
T2 construct: made in house; host or cells: E. coli (DH5alpha, BL21 or JM109)
T2 sequence (Q12959 213-413 limits assumed): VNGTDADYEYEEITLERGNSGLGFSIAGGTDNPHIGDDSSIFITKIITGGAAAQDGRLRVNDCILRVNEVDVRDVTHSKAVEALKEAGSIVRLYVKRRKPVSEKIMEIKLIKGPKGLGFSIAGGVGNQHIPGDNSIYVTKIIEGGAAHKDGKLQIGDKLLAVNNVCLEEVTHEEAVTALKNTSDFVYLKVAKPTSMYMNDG
Experimental: as §1, §2, §3, §4

[1] = biological target: T3, PDZ-domain polypeptide (GST/PDZ fusion protein) (Homo sapiens, UniProt Q9NRD5); experiment: Apparent affinity (Kd) by titration of PL peptide in the G assay; conditions: PDZ PICK1, PDZ Domain 1
T3 construct: made in house; host or cells: E. coli (DH5alpha, BL21 or JM109)
T3 sequence (Q9NRD5 whole entry, the tested form may be a part): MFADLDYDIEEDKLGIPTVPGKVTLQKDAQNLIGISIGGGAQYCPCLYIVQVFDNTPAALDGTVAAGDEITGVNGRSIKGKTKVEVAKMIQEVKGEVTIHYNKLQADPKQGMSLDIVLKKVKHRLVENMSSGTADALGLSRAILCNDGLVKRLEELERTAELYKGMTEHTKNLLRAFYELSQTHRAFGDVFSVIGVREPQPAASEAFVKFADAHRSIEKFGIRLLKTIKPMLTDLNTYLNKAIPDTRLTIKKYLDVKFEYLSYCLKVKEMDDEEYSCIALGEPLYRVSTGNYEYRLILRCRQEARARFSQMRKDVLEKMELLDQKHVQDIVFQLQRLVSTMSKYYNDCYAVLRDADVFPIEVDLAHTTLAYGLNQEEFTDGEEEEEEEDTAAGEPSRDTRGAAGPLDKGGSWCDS
Method in brief: (§5)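 A fixed concentration of GST/PDZ fusion protein, 5 ug/ml by default, was mixed in solution with increasing labeled PL peptide (e.g. 0.1 uM-1 mM). Reaction times ranged from 10 minutes to 2 days at 4-37° C. Complexes were separated from free peptide and detected via the label as in the G assay, apparent affinity coming from the saturating concentration.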

[2] = biological target: T4, PDZ-domain polypeptide (GST/PDZ fusion protein) (Homo sapiens, UniProt Q15700); experiment: as above; conditions: PDZ DLG2, PDZ Domain 2; read-out: Peptide Optimal Conc (Kd by titration of the PL peptide)
T4 construct: made in house; host or cells: E. coli (DH5alpha, BL21 or JM109)
T4 sequence (Q15700 whole entry, the tested form may be a part): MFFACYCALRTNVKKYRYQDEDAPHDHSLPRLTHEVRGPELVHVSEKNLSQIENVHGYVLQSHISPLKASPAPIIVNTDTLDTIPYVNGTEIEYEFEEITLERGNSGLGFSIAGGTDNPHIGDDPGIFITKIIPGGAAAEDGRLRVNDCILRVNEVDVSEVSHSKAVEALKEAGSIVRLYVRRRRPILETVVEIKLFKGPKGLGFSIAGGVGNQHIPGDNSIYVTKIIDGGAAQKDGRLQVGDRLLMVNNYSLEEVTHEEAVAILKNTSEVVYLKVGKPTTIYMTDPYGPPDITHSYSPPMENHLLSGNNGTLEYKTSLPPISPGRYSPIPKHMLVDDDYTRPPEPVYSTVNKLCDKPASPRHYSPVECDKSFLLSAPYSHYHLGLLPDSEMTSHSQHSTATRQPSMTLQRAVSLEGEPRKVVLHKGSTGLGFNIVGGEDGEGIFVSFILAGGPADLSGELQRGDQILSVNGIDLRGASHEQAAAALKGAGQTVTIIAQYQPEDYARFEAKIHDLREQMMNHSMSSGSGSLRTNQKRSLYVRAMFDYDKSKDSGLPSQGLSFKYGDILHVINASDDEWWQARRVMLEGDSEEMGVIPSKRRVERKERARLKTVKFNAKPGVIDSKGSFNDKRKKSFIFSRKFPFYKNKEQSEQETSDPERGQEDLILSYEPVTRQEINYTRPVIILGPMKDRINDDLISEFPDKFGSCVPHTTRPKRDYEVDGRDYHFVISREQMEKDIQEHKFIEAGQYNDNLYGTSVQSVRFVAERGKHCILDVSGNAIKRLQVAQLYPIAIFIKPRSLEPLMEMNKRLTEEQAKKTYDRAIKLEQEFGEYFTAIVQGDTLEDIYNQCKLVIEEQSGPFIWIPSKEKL
Method in brief: as §5

[3] = biological target: T5, PDZ-domain polypeptide (GST/PDZ fusion protein) (Homo sapiens, UniProt Q12959); experiment: as above; conditions: PDZ DLG1, PDZ Domain 1, 2; titration of the PL peptide; read-out: Peptide Optimal Conc (Kd, dissociation constant)
T5 construct: made in house; host or cells: E. coli (DH5alpha, BL21 or JM109)
T5 sequence (Q12959 whole entry, the tested form may be a part): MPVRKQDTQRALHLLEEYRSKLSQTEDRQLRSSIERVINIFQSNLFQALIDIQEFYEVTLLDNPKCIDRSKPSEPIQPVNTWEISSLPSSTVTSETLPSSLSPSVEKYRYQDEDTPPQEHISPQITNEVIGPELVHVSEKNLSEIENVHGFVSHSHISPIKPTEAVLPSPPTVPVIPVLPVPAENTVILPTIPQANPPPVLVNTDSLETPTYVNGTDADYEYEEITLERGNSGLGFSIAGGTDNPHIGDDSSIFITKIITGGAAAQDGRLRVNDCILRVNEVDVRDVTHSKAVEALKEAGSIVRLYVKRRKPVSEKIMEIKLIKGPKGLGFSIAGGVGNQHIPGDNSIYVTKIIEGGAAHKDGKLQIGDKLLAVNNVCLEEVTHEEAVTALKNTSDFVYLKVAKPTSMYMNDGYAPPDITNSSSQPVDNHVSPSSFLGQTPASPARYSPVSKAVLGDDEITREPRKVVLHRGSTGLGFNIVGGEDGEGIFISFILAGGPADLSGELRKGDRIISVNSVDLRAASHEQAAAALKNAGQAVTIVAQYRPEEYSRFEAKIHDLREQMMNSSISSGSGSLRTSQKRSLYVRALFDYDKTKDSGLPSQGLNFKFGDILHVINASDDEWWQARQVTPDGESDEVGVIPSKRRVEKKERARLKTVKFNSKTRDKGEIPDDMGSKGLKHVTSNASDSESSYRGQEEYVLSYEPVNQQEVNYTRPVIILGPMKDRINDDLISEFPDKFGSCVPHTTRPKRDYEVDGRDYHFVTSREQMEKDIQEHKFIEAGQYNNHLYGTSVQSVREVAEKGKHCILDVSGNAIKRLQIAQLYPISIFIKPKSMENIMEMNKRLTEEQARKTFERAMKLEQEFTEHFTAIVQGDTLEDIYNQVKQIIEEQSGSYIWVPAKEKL
Method in brief: as §5

[4] = biological target: T6, PDZ-domain polypeptide (GST/PDZ fusion protein) (Homo sapiens, UniProt Q8TEW0); experiment: as above; conditions: PDZ PAR3, PDZ Domain 3
T6 construct: made in house; host or cells: E. coli (DH5alpha, BL21 or JM109)
T6 sequence (Q8TEW0 whole entry, the tested form may be a part): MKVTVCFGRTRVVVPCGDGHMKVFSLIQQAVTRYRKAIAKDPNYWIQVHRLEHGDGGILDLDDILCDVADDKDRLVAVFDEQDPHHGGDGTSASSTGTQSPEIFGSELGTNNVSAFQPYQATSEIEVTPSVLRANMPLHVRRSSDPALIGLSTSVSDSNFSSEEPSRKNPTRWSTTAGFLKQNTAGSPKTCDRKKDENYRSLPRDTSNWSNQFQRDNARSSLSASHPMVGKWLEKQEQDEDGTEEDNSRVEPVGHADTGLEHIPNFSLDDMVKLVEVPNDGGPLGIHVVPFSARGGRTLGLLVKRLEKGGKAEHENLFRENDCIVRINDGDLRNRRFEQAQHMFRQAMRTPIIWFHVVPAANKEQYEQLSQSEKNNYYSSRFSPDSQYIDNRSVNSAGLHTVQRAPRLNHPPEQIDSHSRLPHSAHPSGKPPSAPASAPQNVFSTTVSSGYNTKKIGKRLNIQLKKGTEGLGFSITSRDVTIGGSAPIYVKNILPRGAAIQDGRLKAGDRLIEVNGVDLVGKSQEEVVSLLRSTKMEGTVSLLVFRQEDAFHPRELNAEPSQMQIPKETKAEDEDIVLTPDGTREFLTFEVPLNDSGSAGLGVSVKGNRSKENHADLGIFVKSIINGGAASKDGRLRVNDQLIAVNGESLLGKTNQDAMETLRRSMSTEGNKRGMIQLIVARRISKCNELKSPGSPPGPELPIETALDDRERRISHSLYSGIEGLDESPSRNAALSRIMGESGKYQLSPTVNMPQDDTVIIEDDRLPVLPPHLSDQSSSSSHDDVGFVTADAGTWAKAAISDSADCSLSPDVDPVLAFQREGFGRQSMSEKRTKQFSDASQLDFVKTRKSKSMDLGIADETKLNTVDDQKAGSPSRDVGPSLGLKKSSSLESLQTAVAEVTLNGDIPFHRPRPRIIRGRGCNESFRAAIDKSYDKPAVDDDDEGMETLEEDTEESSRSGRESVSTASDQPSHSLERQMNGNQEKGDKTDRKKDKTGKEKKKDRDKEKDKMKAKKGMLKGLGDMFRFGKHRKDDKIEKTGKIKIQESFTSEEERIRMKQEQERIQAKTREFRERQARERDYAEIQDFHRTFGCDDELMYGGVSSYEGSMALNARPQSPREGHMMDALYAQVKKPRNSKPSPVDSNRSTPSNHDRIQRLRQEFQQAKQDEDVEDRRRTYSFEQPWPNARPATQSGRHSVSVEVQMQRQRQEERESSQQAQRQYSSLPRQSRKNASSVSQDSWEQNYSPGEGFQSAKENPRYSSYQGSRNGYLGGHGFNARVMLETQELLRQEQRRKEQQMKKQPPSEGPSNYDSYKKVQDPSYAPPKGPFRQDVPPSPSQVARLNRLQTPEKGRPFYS
Method in brief: as §5

[5] = Peptide Optimal Conc (Kd by titration of the PL peptide)

OD (maximum absorbance) (TIP-1 (GST-TIP-1 fusion); TIP-1 plated at 0.3 ug/ml): 2.6 and 3.5
Kd (TIP-1 (GST-TIP-1 fusion); TIP-1 plated at 0.3 ug/ml, read-out: Kd): 20 µM and 25 µM
OD (maximum absorbance) (DLG1(1-2); DLG1(1-2) plated at 0.3 ug/ml): 2.6 and 2.1
Kd (DLG1(1-2); DLG1(1-2) plated at 0.3 ug/ml, read-out: Kd): 15 µM and 20 µM
Compound: CC[C@H](C)[C@H](NC(=O)[C@H](CCC(=O)O)NC(=O)[C@H](CC(N)=O)NC(=O)[C@H](CCCNC(=N)N)NC(=O)[C@H](Cc1ccccc1)NC(=O)[C@H](CC(N)=O)NC(=O)[C@H](CO)NC(=O)[C@H](CC(N)=O)NC(=O)[C@H](CCC(=O)O)NC(=O)[C@H](CO)NC(=O)[C@H](CC(=O)O)NC(=O)[C@H](CO)NC(=O)[C@@H](NC(=O)[C@@H](NC(=O)[C@H](CC(=O)O)NC(=O)[C@H](CCCCN)NC(=O)CCCC[C@@H]1SC[C@@H]2NC(=O)N[C@@H]21)[C@@H](C)CC)[C@@H](C)O)C(=O)N[C@@H](CCC(N)=O)C(=O)N[C@@H](CO)C(=O)N[C@@H](CC(C)C)C(=O)N[C@H](C(=O)O)C(C)C [CD95] (Biotin-KDITSDSENSNFRNEIQSLV-OH; C-terminus assumed)

Kd ([1]; read-out: Peptide Optimal Conc (Kd by titration of the PL peptide)): 0.9 µM
Compound: CC(C)C[C@H](NC(=O)[C@H](Cc1c[nH]c2ccccc12)NC(=O)[C@H](Cc1c[nH]cn1)NC(=O)[C@H](CCCNC(=N)N)NC(=O)[C@H](CC(C)C)NC(=O)[C@@H](NC(=O)[C@H](Cc1ccccc1)NC(=O)[C@H](CCC(N)=O)NC(=O)[C@H](CCCNC(=N)N)NC(=O)[C@@H](NC(=O)[C@H](CCC(=O)O)NC(=O)CNC(=O)[C@H](CCCNC(=N)N)NC(=O)[C@H](CC(=O)O)NC(=O)[C@@H](NC(=O)[C@H](CC(C)C)NC(=O)[C@H](CCC(=O)O)NC(=O)[C@H](CCCNC(=N)N)NC(=O)CCCC[C@@H]1SC[C@@H]2NC(=O)N[C@@H]21)C(C)C)C(C)C)[C@@H](C)O)C(=O)N[C@@H](CCCCN)C(=O)N[C@H](C(=O)O)C(C)C [Dopamine transporter (Na+-dependent)] (Biotin-RELVDRGEVRQFTLRHWLKV-OH; C-terminus assumed)

Compound: CSCC[C@H](NC(=O)[C@H](C)NC(=O)[C@H](CCCNC(=N)N)NC(=O)CNC(=O)[C@@H](NC(=O)[C@H](Cc1c[nH]c2ccccc12)NC(=O)[C@H](CCCNC(=N)N)NC(=O)CNC(=O)CCCC[C@@H]1SC[C@@H]2NC(=O)N[C@@H]21)[C@@H](C)O)C(=O)N[C@@H](CO)C(=O)N[C@@H](C)C(=O)N[C@@H](Cc1c[nH]c2ccccc12)C(=O)N[C@@H](CCCCN)C(=O)N1CCC[C@H]1C(=O)N[C@H](C(=O)N[C@@H](CCCNC(=N)N)C(=O)N[C@@H](CCCNC(=N)N)C(=O)N[C@@H](CCC(=O)O)C(=O)N[C@H](C(=O)N[C@@H](CCC(=O)O)C(=O)N[C@H](C(=O)O)C(C)C)[C@@H](C)O)[C@@H](C)O [HPV E6 #35 (modified)] (Biotin-GRWTGRAMSAWKPTRRETEV-OH; C-terminus assumed)
Kd [2]: 0.2 µM

Kd [3]: 5 µM
Compound: CC[C@H](C)[C@H](NC(=O)[C@H](CCC(=O)O)NC(=O)[C@H](CO)NC(=O)[C@H](CCC(=O)O)NC(=O)[C@H](CCCNC(=N)N)NC(=O)[C@H](CCCNC(=N)N)NC(=O)[C@H](CC(C)C)NC(=O)[C@@H]1CCCN1C(=O)[C@H](CCCNC(=N)N)NC(=O)[C@@H]1CCCN1C(=O)[C@H](CCC(=O)O)NC(=O)[C@H](CC(C)C)NC(=O)[C@@H]1CCCN1C(=O)[C@@H](NC(=O)[C@H](CO)NC(=O)[C@H](C)NC(=O)[C@H](CCC(N)=O)NC(=O)[C@H](CC(N)=O)NC(=O)[C@H](Cc1c[nH]cn1)NC(=O)[C@H](CC(C)C)NC(=O)CCCC[C@@H]1SC[C@@H]2NC(=O)N[C@@H]21)C(C)C)C(=O)O [Kir2.1 (inwardly rect. K+ channel)] (Biotin-LHNQASVPLEPRPLRRESEI-OH; C-terminus assumed)

Compound: CC[C@H](C)[C@H](NC(=O)[C@H](CCC(N)=O)NC(=O)CCCC[C@@H]1SC[C@@H]2NC(=O)N[C@@H]21)C(=O)N[C@@H](CO)C(=O)N1CCC[C@H]1C(=O)NCC(=O)NCC(=O)N[C@@H](CC(C)C)C(=O)N[C@@H](CCC(=O)O)C(=O)N1CCC[C@H]1C(=O)N1CCC[C@H]1C(=O)N[C@@H](CO)C(=O)N[C@@H](CCC(=O)O)C(=O)N[C@@H](CCCCN)C(=O)N[C@@H](Cc1c[nH]cn1)C(=O)N[C@@H](Cc1ccccc1)C(=O)N[C@@H](CCCNC(=N)N)C(=O)N[C@@H](CCC(=O)O)C(=O)N[C@H](C(=O)N[C@@H](CCC(=O)O)C(=O)N[C@H](C(=O)O)C(C)C)[C@@H](C)O [Tax]
Kd (TIP-1 (GST-TIP-1 fusion); Kd, TIP-1 plated at 0.1 ug/ml): 0.005 µM
binding to TIP-1 relative to CD95 (comparison of dissociation constants) (TIP-1 (GST-TIP-1 fusion); Tax:TIP-1 versus CD95:TIP-1): > 3000 fold
OD (maximum absorbance) (TIP-1 (GST-TIP-1 fusion); TIP-1 plated at 0.1 ug/ml): 3.3 and 2.1
affinity for GST-TIP-1 relative to CD95 (FIG. 2A) (TIP-1 (GST-TIP-1 fusion); equivalent peptide concentrations, equivalent amount of GST-TIP-1): much higher affinity than does CD95
Kd (DLG1(1-2); Kd, DLG1(1-2) plated at 0.1 ug/ml): 0.13 µM and 0.2 µM

Compound: CC[C@H](C)[C@H](NC(=O)[C@H](C)NC(=O)[C@H](CC(C)C)NC(=O)[C@H](Cc1c[nH]c2ccccc12)NC(=O)[C@H](Cc1c[nH]cn1)NC(=O)[C@H](CCC(N)=O)NC(=O)[C@H](CC(C)C)NC(=O)[C@H](CCC(N)=O)NC(=O)[C@H](Cc1ccccc1)NC(=O)[C@H](CCC(N)=O)NC(=O)[C@H](CCCNC(=N)N)NC(=O)[C@@H](NC(=O)[C@H](CC(=O)O)NC(=O)[C@H](CCCNC(=N)N)NC(=O)[C@H](CCC(N)=O)NC(=O)[C@H](C)NC(=O)[C@@H](NC(=O)[C@H](CC(C)C)NC(=O)[C@H](Cc1c[nH]cn1)NC(=O)[C@H](Cc1c[nH]cn1)NC(=O)CCCC[C@@H]1SC[C@@H]2NC(=O)N[C@@H]21)C(C)C)[C@@H](C)CC)C(=O)O [noradrenaline transporter] (Biotin-HHLVAQRDIRQFQLQHWLAI-OH; C-terminus assumed)
Kd [4, 5]: 0.6 µM
Kd [1, 5]: 1 µM

Kd ([4]; titration of the PL peptide, read-out: Peptide Optimal Conc (Kd, dissociation constant)): 2 µM
Compound: CC[C@H](C)[C@H](NC(=O)[C@H](Cc1ccc(O)cc1)NC(=O)[C@H](CC(C)C)NC(=O)[C@H](CCC(N)=O)NC(=O)[C@H](Cc1c[nH]cn1)NC(=O)[C@H](CO)NC(=O)[C@H](C)NC(=O)[C@H](CC(C)C)NC(=O)[C@@H](NC(=O)[C@H](CC(=O)O)NC(=O)[C@H](CCSC)NC(=O)[C@H](Cc1ccccc1)NC(=O)[C@@H]1CCCN1C(=O)[C@H](CCCNC(=N)N)NC(=O)[C@@H](NC(=O)[C@H](CC(C)C)NC(=O)[C@H](CC(N)=O)NC(=O)[C@H](CC(=O)O)NC(=O)[C@@H](NC(=O)[C@H](CO)NC(=O)CCCC[C@@H]1SC[C@@H]2NC(=O)N[C@@H]21)[C@@H](C)O)C(C)C)[C@@H](C)O)C(=O)O [presenilin-2] (Biotin-STDNLVRPFMDTLASHQLYI-OH; C-terminus assumed)
